Test results published in a melting point compilation (Tetko et al.; mined from patent text by program, amines drawn as free bases though some values may be those of a salt).

SMILES	melting point [°C]
NC(=O)OCC(Cc1ccccc1)NC(=O)C1CCN(c2c(Cl)cncc2Cl)CC1 (stereo unspecified)	147 to 149
Cc1c(C#N)cnc(N)c1C#N	222 to 223
CNc1c(SC(F)(F)F)c(C#N)nn1-c1c(Cl)cc(C(F)(F)F)cc1Cl	208 to 210
CCOC(=O)Nc1c(F)cc(Cl)c2nc(C(C)(C)C)oc12	127 to 129
CC1(C)CCc2c(N3CCCC3)nc3sc4c(NCC(=O)NCC5CCCO5)ncnc4c3c2C1 (stereo unspecified)	210 to 211
CCOC(=O)c1cc(O)ccc1OCC	49 to 53
Cc1nc2c(-c3cccc(N4CCN(C)CC4)c3)cnn2c(N)c1-c1ccc(F)cc1	204 to 206
CC1=Nc2ccc(S(N)(=O)=O)cc2S(=O)(=O)N1	295 to 297
CCC(=O)NCCC1CN(C=O)c2ccc3c(c21)CCO3 (stereo unspecified)	139 to 141
COc1ccc(CNc2nnc(N3CCC(CCO)CC3)c3ccc(Cl)cc23)cc1Cl	153 to 155
CCCCC(=O)c1oc(=O)[nH]c1C	92 to 94
C=CCn1c(SCc2cnn(-c3c(Cl)cc(C(F)(F)F)cc3Cl)n2)nc(C#N)c1C#N	125 to 127
COc1ccc(S(=O)(=O)N(C)C)cc1-c1ccc(CN2CCCCC2)[nH]1	78 to 79
O=C(NCc1cn(-c2ccc(N3CCOCC3)c(F)c2)nn1)C(Cl)Cl	190
CCOc1cc2c(cc1O)C(=NO)CC1C2CCC2(C)C(OC(C)=O)CCC12 (stereo unspecified)	226 to 227
CCn1cc(C2(c3cccc(Br)c3)N=C(N)N(C)C2=O)cc1C=O (stereo unspecified)	194 to 195
Cc1ccc(S(=O)(=O)n2cc(CO)nc2C)cc1	140 to 143
O=C1NCCc2c1c1ccccc1n2COCc1ccccc1	133 to 135
CCOC(CNC(=S)Nc1ccnn1C)OCC	148 to 149
COc1ccc(S(=O)(=O)N2Cc3cc4c(cc3CC2C(=O)NO)OCO4)cc1 (stereo unspecified)	166
O=C(Nc1cccnc1)N1CCN(c2nc(-c3cccc(Cl)c3Cl)cs2)CC1	132 to 133
CCCCNC(=O)NS(=O)(=O)c1cccc2c1S(=O)(=O)N(C)C2	162 to 164
COc1cc(C)c2ccc(=O)[nH]c2n1	214 to 216
COc1cc(OC)cc(N2CCN(C(=S)Nc3cc4c(nc3OC)CCCC4)CC2)c1	160 to 161
CC1(C)CCc2cc(O)c(O)cc2C1=O	163 to 165
CC(=O)On1c(C(F)(F)F)nc2ncc(Cl)cc21	103
CC(C)(C=NO)C1CCN(CC#Cc2cc(C(F)(F)F)cc(C(F)(F)F)c2)CC1	63 to 65

Continued, values first:

melting point [°C]	SMILES
> 300	Cc1ccccc1NC(=O)Nc1ccc(N)cc1
159 to 161	COc1ccc2[nH]c(C(=O)c3ccccc3)cc2c1
164 to 165	Cc1cc(Nc2ccnc(Nc3ccc(S(=O)(=O)N(C)C4CCC(F)(F)CC4)cc3)n2)ccc1F
114 to 117	CC(=O)c1ccc(-c2ccc(Cl)c(Cl)c2)o1
62 to 64	CCOC(=O)C(Sc1nc2cc(Cl)ccc2s1)c1ccccc1 (stereo unspecified)
159 to 161	COc1cccc(Cc2ccccc2)c1C(=O)O
150 to 151	CC(C)(C)OC(=O)Nc1ccc2ccc(S(=O)(=O)N(Cc3ccccc3)Cc3ccccc3)cc2c1Br
87 to 88	Cc1ccc(S(=O)(=O)NCCCCOc2ccc([N+](=O)[O-])cc2)cc1
260 to 263	N#CCCNC(=O)Nc1cc(N2CC(c3ccccc3)CC2=O)ccn1 (stereo unspecified)
180 to 182	CCCCCSc1cc(C(=O)O)cc(S(N)(=O)=O)c1Oc1ccccc1
132 to 135	CC(C)S(=O)(=O)Nc1ccc([C@@H](C)C(=O)N[C@@H](C)C(N)=O)cc1
107 to 110	O=c1[nH]c2ccc(C3CCC(NCCS(=O)c4ccccc4)CC3)cc2o1 (stereo unspecified)
72	CCN(CC)C(=O)c1cc2ccccc2c(-c2ccccc2)n1
218 to 219	CC1(C)Nc2ccc(C#N)cc2C(NC(=NC#N)Nc2ccccc2)C1O (stereo unspecified)
